In the NIST ThermoML archive (doi:10.1016/j.jct.2015.12.025):

Assays:
[1] = refractive index (Na D-line) (dimensionless); xn = mol fraction of the nth substance listed; details: 102 kPa, Liquid, Standard Abbe refractometry
[2] = xn = mol fraction of the nth substance listed; details: 102 kPa, Liquid, Vibrating tube method

C[Si]1(CCC(F)(F)F)O[Si](C)(CCC(F)(F)F)O[Si](C)(CCC(F)(F)F)O1 (stereo not given) + CCc1ccccc1
Details | mass density, 308.15 K [kg/m3] | mass density, 313.15 K [kg/m3] | mass density, 318.15 K [kg/m3] | mass density, 323.15 K [kg/m3] | refractive index, 308.15 K | refractive index, 313.15 K | refractive index, 318.15 K | refractive index, 323.15 K
[1], x1 = 0.05 | – | – | – | – | 1.46829 | 1.46563 | 1.46295 | 1.46034
[1], x1 = 0.1 | – | – | – | – | 1.4527 | 1.45013 | 1.44755 | 1.445
[1], x1 = 0.15 | – | – | – | – | 1.43984 | 1.43731 | 1.43479 | 1.43233
[1], x1 = 0.1967 | – | – | – | – | 1.42972 | 1.42722 | 1.42478 | 1.42233
[1], x1 = 0.25 | – | – | – | – | 1.41987 | 1.41742 | 1.41503 | 1.41266
[1], x1 = 0.2998 | – | – | – | – | 1.41202 | 1.40962 | 1.40725 | 1.40493
[1], x1 = 0.35 | – | – | – | – | 1.40515 | 1.40278 | 1.40047 | 1.39817
[1], x1 = 0.377 | – | – | – | – | 1.40179 | 1.39946 | 1.39713 | 1.39485
[1], x1 = 0.4437 | – | – | – | – | 1.39447 | 1.39219 | 1.38991 | 1.38768
[1], x1 = 0.5001 | – | – | – | – | 1.38911 | 1.38686 | 1.38464 | 1.38243
[1], x1 = 0.5492 | – | – | – | – | 1.38496 | 1.38275 | 1.38053 | 1.37836
[1], x1 = 0.5994 | – | – | – | – | 1.3811 | 1.37891 | 1.37672 | 1.37458
[1], x1 = 0.6499 | – | – | – | – | 1.3776 | 1.37545 | 1.37326 | 1.37112
[1], x1 = 0.6997 | – | – | – | – | 1.37445 | 1.37234 | 1.37017 | 1.36807
[1], x1 = 0.7502 | – | – | – | – | 1.37152 | 1.36941 | 1.36729 | 1.36521
[1], x1 = 0.7999 | – | – | – | – | 1.36888 | 1.36677 | 1.36471 | 1.36262
[1], x1 = 0.8498 | – | – | – | – | 1.36642 | 1.36437 | 1.36228 | 1.36025
[1], x1 = 0.9002 | – | – | – | – | 1.36413 | 1.3621 | 1.36007 | 1.35801
[1], x1 = 0.9498 | – | – | – | – | 1.36206 | 1.36004 | 1.35799 | 1.356
[1], x1 = 1 | – | – | – | – | 1.36011 | 1.35808 | 1.35608 | 1.35407
[2], x1 = 0.05 | 905.01 | 900.4 | 895.69 | 890.85 | – | – | – | –
[2], x1 = 0.1 | 947.97 | 943.16 | 938.39 | 933.5 | – | – | – | –
[2], x1 = 0.15 | 984.47 | 979.55 | 974.46 | 969.52 | – | – | – | –
[2], x1 = 0.1967 | 1013.95 | 1008.92 | 1003.57 | 998.43 | – | – | – | –
[2], x1 = 0.25 | 1043.11 | 1037.94 | 1032.55 | 1027.19 | – | – | – | –
[2], x1 = 0.2998 | 1066.87 | 1061.66 | 1056.21 | 1050.74 | – | – | – | –
[2], x1 = 0.35 | 1088.17 | 1082.82 | 1077.22 | 1071.74 | – | – | – | –
[2], x1 = 0.377 | 1098.7 | 1093.23 | 1087.75 | 1082.06 | – | – | – | –
[2], x1 = 0.4437 | 1121.97 | 1116.36 | 1110.93 | 1104.98 | – | – | – | –
[2], x1 = 0.5001 | 1139.32 | 1133.58 | 1127.97 | 1121.88 | – | – | – | –
[2], x1 = 0.5492 | 1152.93 | 1147.02 | 1141.17 | 1135.21 | – | – | – | –
[2], x1 = 0.5994 | 1165.69 | 1159.63 | 1153.7 | 1147.6 | – | – | – | –
[2], x1 = 0.6499 | 1177.11 | 1171.2 | 1165.14 | 1158.94 | – | – | – | –
[2], x1 = 0.6997 | 1187.73 | 1181.59 | 1175.49 | 1169.24 | – | – | – | –
[2], x1 = 0.7502 | 1197.39 | 1191.42 | 1185.03 | 1178.51 | – | – | – | –
[2], x1 = 0.7999 | 1206.57 | 1200.31 | 1193.75 | 1187.44 | – | – | – | –
[2], x1 = 0.8498 | 1214.84 | 1208.54 | 1202.09 | 1195.57 | – | – | – | –
[2], x1 = 0.9002 | 1222.62 | 1216.17 | 1209.67 | 1203.21 | – | – | – | –
[2], x1 = 0.9498 | 1229.79 | 1223.31 | 1216.79 | 1210.24 | – | – | – | –
[2], x1 = 1 | 1236.63 | 1230.05 | 1223.55 | 1216.99 | – | – | – | –
